Data: BindingDB's records for doi:10.1016/j.bmcl.2003.08.078 (University of Florida, 2003)

Biological target: Melanocortin receptor 4 (Mus musculus, UniProt P56450)
Assay: ChEBML_104255
Text: Agonistic activity evaluated at melanocortin 4 receptor (MC4R) of mouse HEK293 cells

Sequence of Melanocortin receptor 4 (P56450 whole entry): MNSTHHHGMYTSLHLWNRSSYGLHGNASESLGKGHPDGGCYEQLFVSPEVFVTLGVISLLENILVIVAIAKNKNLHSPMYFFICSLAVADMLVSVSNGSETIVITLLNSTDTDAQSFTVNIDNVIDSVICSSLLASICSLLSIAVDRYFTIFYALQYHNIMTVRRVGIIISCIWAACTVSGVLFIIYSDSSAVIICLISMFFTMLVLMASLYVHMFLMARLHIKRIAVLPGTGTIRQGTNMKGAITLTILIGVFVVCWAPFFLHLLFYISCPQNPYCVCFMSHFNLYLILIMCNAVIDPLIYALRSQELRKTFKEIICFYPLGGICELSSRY

**Q.** For CC(=O)N[C@@H](Cc1cnc[nH]1)C(=O)N[C@H](Cc1ccccc1)C(=O)N[C@@H](CCCN=C(N)N)C(=O)N[C@@H](Cc1c[nH]c2ccccc12)C(N)=O [(S)-2-{(R)-2-[(S)-2-Acetylamino-3-(1H-imidazol-4-yl)-propionylamino]-3-phenyl-propionylamino}-5-guanidino-pentanoic acid [(S)-1-carbamoyl-2-(1H-indol-3-yl)-ethyl]-amide], which EC50 is on record?
**A.** 17 nM
